# Reference: PubChem BioAssay (NCI)
#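 Interpolation was linear, between the two tested concentrations surrounding the appropriate level; five concentrations were tested over 48 hours in 96-well plates. At the TGI there is no net growth.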
# Tests used:
# Assay in all cases: DTP human tumour cell line panel, 48 h
# [1] = test system: SNB-75 CNS
# [2] = test system: DMS 273 small cell lung
# [3] = test system: HT29 colon
# [4] = test system: SN12C renal
# [5] = test system: MOLT-4 leukemia
# [6] = test system: OVCAR-3 ovarian
# [7] = test system: 786-0 renal
# [8] = test system: NCI-H522 lung
# [9] = test system: LXFL 529 NSCLC
# [10] = test system: ACHN renal
# [11] = test system: CAKI-1 renal
# [12] = test system: NCI-H460 lung
# [13] = test system: HCT-15 colon
# [14] = test system: SF-295 CNS
# [15] = test system: IGROV1 ovarian
# [16] = test system: A498 renal
# [17] = test system: KM12 colon
# [18] = test system: TK-10 renal
# [19] = test system: HOP-62 NSCLC
# [20] = test system: OVCAR-4 ovarian
# [21] = test system: HCT-116 colon
# [22] = test system: SK-MEL-2 melanoma
# [23] = test system: CCRF-CEM leukemia
# [24] = test system: HL-60(TB) leukemia
# [25] = test system: NCI-H23 lung
# [26] = test system: UACC-257 melanoma
# [27] = test system: OVCAR-8 ovarian
# [28] = test system: KM20L2 colon
# [29] = test system: EKVX NSCLC
# [30] = test system: UO-31 renal
# [31] = test system: UACC-62 melanoma
# [32] = test system: SNB-19 CNS
# [33] = test system: HOP-92 NSCLC
# [34] = test system: SNB-78 CNS
# [35] = test system: HCC-2998 colon
# [36] = test system: A549 NSCLC
# [37] = test system: U251 CNS
# [38] = test system: DMS 114 small cell lung
# [39] = test system: SF-539 CNS
# [40] = test system: NCI-H226 lung
# [41] = test system: DLD-1 colon
# [42] = test system: M14 melanoma
# [43] = test system: MALME-3M melanoma
# [44] = test system: RPMI-8226 leukemia
# [45] = test system: RXF 393 renal
# [46] = test system: XF 498 CNS
# [47] = test system: COLO 205 colon
# [48] = test system: LOX IMVI melanoma
# [49] = test system: K-562 leukemia
# [50] = test system: SK-MEL-5 melanoma
# [51] = test system: HOP-18 NSCLC
# [52] = test system: SK-OV-3 ovarian
# [53] = test system: OVCAR-5 ovarian
# [54] = test system: SK-MEL-28 melanoma
# [55] = test system: SF-268 CNS
# [56] = test system: SR leukemia
# [57] = test system: M19-MEL melanoma
compound,measurement,setting,value
C/C(CC(=O)Nc1ccc(C)c(C)c1)=N\N(c1ccccc1)c1ccccc1,TGI,[1],> 100 µM
same,TGI,[2],33.5 µM
same,TGI,[3],> 100 µM
same,TGI,[4],> 100 µM
same,TGI,[5],> 100 µM
same,TGI,[6],> 100 µM
same,TGI,[7],> 100 µM
same,TGI,[8],29.7 µM
same,TGI,[9],> 100 µM
same,TGI,[10],> 100 µM
same,TGI,[11],> 100 µM
same,TGI,[12],> 100 µM
same,TGI,[13],> 100 µM
same,TGI,[14],> 100 µM
same,TGI,[15],> 100 µM
same,TGI,[16],> 100 µM
same,TGI,[17],> 100 µM
same,TGI,[18],> 100 µM
same,TGI,[19],> 100 µM
same,TGI,[20],> 100 µM
same,TGI,[21],> 100 µM
same,TGI,[22],> 100 µM
same,TGI,[23],64.4 µM
same,TGI,[24],> 100 µM
same,TGI,[25],> 100 µM
same,TGI,[26],> 100 µM
same,TGI,[27],> 100 µM
same,TGI,[28],26 µM
same,TGI,[29],> 100 µM
same,TGI,[30],> 100 µM
same,TGI,[31],57.4 µM
same,TGI,[32],> 100 µM
same,TGI,[33],> 100 µM
same,TGI,[34],> 100 µM
same,TGI,[35],> 100 µM
same,TGI,[36],> 100 µM
same,TGI,[37],30.5 µM
same,TGI,[38],33.2 µM
same,TGI,[39],> 100 µM
same,TGI,[40],> 100 µM
same,TGI,[41],> 100 µM
same,TGI,[42],> 100 µM
same,TGI,[43],> 100 µM
same,TGI,[44],> 100 µM
same,TGI,[45],> 100 µM
same,TGI,[46],> 100 µM
same,TGI,[47],34.6 µM
same,TGI,[48],> 100 µM
same,TGI,[49],68.9 µM
same,TGI,[50],> 100 µM
same,TGI,[51],> 100 µM
same,TGI,[52],> 100 µM
same,TGI,[53],> 100 µM
same,TGI,[54],> 100 µM
same,TGI,[55],> 100 µM
same,TGI,[56],51.2 µM
CC(O)CNC(=O)C(C)Oc1ccc(OCC2CCCCC2)cc1 (stereo unspecified),TGI,[1],> 100 µM
same,TGI,[2],> 100 µM
same,TGI,[3],> 100 µM
same,TGI,[4],> 100 µM
same,TGI,[5],> 100 µM
same,TGI,[6],> 100 µM
same,TGI,[7],> 100 µM
same,TGI,[8],> 100 µM
same,TGI,[9],> 100 µM
same,TGI,[10],> 100 µM
same,TGI,[12],> 100 µM
same,TGI,[13],> 100 µM
same,TGI,[14],> 100 µM
same,TGI,[15],> 100 µM
same,TGI,[16],> 100 µM
same,TGI,[17],> 100 µM
same,TGI,[18],> 100 µM
same,TGI,[20],> 100 µM
same,TGI,[21],> 100 µM
same,TGI,[22],> 100 µM
same,TGI,[23],> 100 µM
same,TGI,[57],> 100 µM
same,TGI,[24],> 100 µM
same,TGI,[26],> 100 µM
same,TGI,[27],> 100 µM
same,TGI,[30],> 100 µM
same,TGI,[31],> 100 µM
same,TGI,[32],> 100 µM
same,TGI,[34],> 100 µM
same,TGI,[35],> 100 µM
same,TGI,[36],> 100 µM
same,TGI,[37],> 100 µM
same,TGI,[38],> 100 µM
same,TGI,[39],> 100 µM
same,TGI,[40],> 100 µM
same,TGI,[42],> 100 µM
same,TGI,[43],> 100 µM
same,TGI,[46],> 100 µM
same,TGI,[48],> 100 µM
same,TGI,[49],> 100 µM
same,TGI,[50],> 100 µM
same,TGI,[51],> 100 µM
same,TGI,[52],> 100 µM
same,TGI,[54],> 100 µM
same,TGI,[55],> 100 µM
